From the supplement of paper PMC13380429

Tests used:
[1] = tested on: A549-ACE2 infected with SARS-CoV-2; test: cell count relative to DMSO; higher = less toxic; conditions: 24 h
Caco-2 [2] = test: cell viability relative to DMSO; higher = less toxic; conditions: 72 h
Calu-3 [3] = test: as above; conditions: 72 h
HepG2 [4] = test: as above; conditions: 72 h
U2OS [5] = test: as above; conditions: 72 h
Vero E6 [6] = test: as above; conditions: 72 h
[7] = tested on: A549-ACE2 infected with SARS-CoV-2; test: SARS-CoV-2 infection rate relative to DMSO; higher = more infection; conditions: 24 h
A549-ACE2 = test: drug-induced phospholipidosis relative to tamoxifen; higher = more phospholipidosis
[8] = tested on: A549-ACE2 infected with SARS-CoV-2; test: morphology score (similarity to uninfected cells); higher = more like uninfected cells; conditions: 24 h
Caco-2 [9] = test: relative viability EC50 (midpoint between 100% and the lowest measured viability); higher = less toxic; conditions: 72 h
Calu-3 [10] = test: as above; conditions: 72 h
HepG2 [11] = test: as above; conditions: 72 h
U2OS [12] = test: as above; conditions: 72 h
Vero E6 [13] = test: as above; conditions: 72 h
Caco-2 [14] = test: drug sensitivity score (DSS) for viability; higher = more toxic; extreme values may be limits of the assay; conditions: 72 h
Calu-3 [15] = test: as above; conditions: 72 h
HepG2 [16] = test: as above; conditions: 72 h
U2OS [17] = test: as above; conditions: 72 h
Vero E6 [18] = test: as above; conditions: 72 h

C/C(=N\NC(=S)N1CCC1)c1ccccn1
Conditions | SARS-CoV-2 infection rate, [7] [%] | cell count, [1] [%] | cell viability, Caco-2 [2] [%] | cell viability, Calu-3 [3] [%] | cell viability, HepG2 [4] [%] | cell viability, U2OS [5] [%] | cell viability, Vero E6 [6] [%] | morphology score, [8]
1 nM | – | – | 91.8 | 97.3 | 104 | 101 | 102 | –
10 nM | – | – | 14.9 | 102 | 74.3 | 101 | 96.6 | –
0.1 µM | 104 | 96 | – | – | – | – | – | -0.24
100 nM | – | – | 17.9 | 56.8 | 5.6 | 59 | 70.5 | –
0.3 µM | 104 | 95 | – | – | – | – | – | -0.09
1 µM | 104 | 89 | – | – | – | – | – | -0.19
1000 nM | – | – | 39.6 | 38.4 | 11.4 | 28.1 | 31.3 | –
3 µM | 68 | 88 | – | – | – | – | – | 0.17
10000 nM | – | – | 34 | 25.4 | 21 | 15.4 | 14.5 | –

drug-induced phospholipidosis [%], A549-ACE2
Conditions | 0.3 µM | 0.833333 µM | 3.33333 µM | 6.66667 µM | 10 µM | 30 µM
24 h | 11.7 | 5.99 | 0.42 | -4.61 | -12.7 | -11.9
48 h | – | – | – | – | -6.55 | –

Conditions | drug sensitivity score | relative viability EC50 [µM]
Caco-2 [9] | – | 0.0024
Caco-2 [14] | 38.4 | –
Calu-3 [10] | – | 0.0907
Calu-3 [15] | 18 | –
HepG2 [11] | – | 0.0148
HepG2 [16] | 32.8 | –
U2OS [12] | – | 0.122
U2OS [17] | 18.8 | –
Vero E6 [13] | – | 0.206
Vero E6 [18] | 16.4 | –

CCC[C@@H]1CC2=CC(=O)CC[C@]2(C)[C@H]2CC[C@@]3(C)[C@@H](CC[C@@]3(O)CCC(=O)O)[C@H]12
Conditions | SARS-CoV-2 infection rate, [7] [%] | cell count, [1] [%] | cell viability, Caco-2 [2] [%] | cell viability, Calu-3 [3] [%] | cell viability, HepG2 [4] [%] | cell viability, U2OS [5] [%] | cell viability, Vero E6 [6] [%] | morphology score, [8]
1 nM | – | – | 87.4 | 101 | 87.5 | 98.9 | 94.6 | –
10 nM | – | – | 98.4 | 92.5 | 105 | 98.3 | 91 | –
100 nM | – | – | 95.7 | 100 | 93.3 | 97.2 | 97.6 | –
0.3 µM | 98 | 95 | – | – | – | – | – | 0.12
1000 nM | – | – | 94.9 | 98.5 | 92 | 100 | 89.1 | –
3 µM | 105 | 103 | – | – | – | – | – | -0.07
10 µM | 97 | 100 | – | – | – | – | – | 0.07
10000 nM | – | – | 89.8 | 102 | 101 | 93.8 | 95.4 | –
30 µM | 96 | 99 | – | – | – | – | – | 0.1

drug-induced phospholipidosis [%], A549-ACE2
Conditions | 0.3 µM | 0.833333 µM | 3.33333 µM | 6.66667 µM | 10 µM | 30 µM
24 h | 2.3 | -0.41 | -0.2 | 0.45 | 2.66 | 5.67
48 h | 3.88 | 0.27 | -1.07 | 1.45 | 3.16 | 6.48
72 h | 3.28 | -0.65 | -0.652 | 0.565 | 3.59 | 9.53

Conditions | drug sensitivity score | relative viability EC50 [µM]
Caco-2 [9] | – | > 10
Caco-2 [14] | 0 | –
Calu-3 [10] | – | > 10
Calu-3 [15] | 0 | –
HepG2 [11] | – | > 10
HepG2 [16] | 0 | –
U2OS [12] | – | > 10
U2OS [17] | 0 | –
Vero E6 [13] | – | > 10
Vero E6 [18] | 0 | –

Cc1ccc2cc(-c3c(C)ccc(C(=O)c4c(-c5ccccc5)n(C)n(-c5ccccc5)c4=O)c3N)ccc2n1 [AMG-PERK-44]
Conditions | SARS-CoV-2 infection rate, [7] [%] | cell count, [1] [%] | cell viability, Caco-2 [2] [%] | cell viability, Calu-3 [3] [%] | cell viability, HepG2 [4] [%] | cell viability, U2OS [5] [%] | cell viability, Vero E6 [6] [%] | morphology score, [8]
1 nM | – | – | 92.6 | 105 | 96.5 | 98.4 | 85.8 | –
10 nM | – | – | 90.6 | 102 | 98.4 | 96.7 | 88.9 | –
100 nM | – | – | 75.3 | 100 | 93 | 98.1 | 92.9 | –
0.3 µM | 107 | 96 | – | – | – | – | – | -0.16
1000 nM | – | – | 68.5 | 95.7 | 91.3 | 102 | 98.7 | –
3 µM | 86 | 101 | – | – | – | – | – | 0.09
10 µM | 91 | 103 | – | – | – | – | – | 0.05
10000 nM | – | – | 97.1 | 111 | 86.7 | 101 | 116 | –
30 µM | 51 | 103 | – | – | – | – | – | 0.57

drug-induced phospholipidosis [%], A549-ACE2
Conditions | 0.3 µM | 0.833333 µM | 3.33333 µM | 6.66667 µM | 10 µM | 30 µM
24 h | 0.1 | -2.94 | -0.56 | 4.07 | 7.05 | 23.2
48 h | 0.46 | -0.23 | 5.6 | 10.1 | 14.1 | 24.3
72 h | 0.916 | 0.798 | 10 | 13.7 | 17.9 | 33.4

Conditions | drug sensitivity score | relative viability EC50 [µM]
Caco-2 [9] | – | > 10
Caco-2 [14] | 0 | –
Calu-3 [10] | – | > 10
Calu-3 [15] | 0 | –
HepG2 [11] | – | > 10
HepG2 [16] | 0.2 | –
U2OS [12] | – | > 10
U2OS [17] | 0 | –
Vero E6 [13] | – | > 10
Vero E6 [18] | 0 | –

c1cnc2c([O][Ga]([O]c3cccc4cccnc34)[O]c3cccc4cccnc34)cccc2c1 [gallium-triquinolin-8-olate]
Conditions | SARS-CoV-2 infection rate, [7] [%] | cell count, [1] [%] | cell viability, Caco-2 [2] [%] | cell viability, Calu-3 [3] [%] | cell viability, HepG2 [4] [%] | cell viability, U2OS [5] [%] | cell viability, Vero E6 [6] [%] | morphology score, [8]
1 nM | – | – | 94.3 | 95.9 | 96.5 | 97 | 116 | –
10 nM | – | – | 104 | 111 | 102 | 105 | 103 | –
100 nM | – | – | 89.1 | 97.6 | 118 | 100 | 106 | –
0.3 µM | 98 | 103 | – | – | – | – | – | 0.25
1000 nM | – | – | 116 | 110 | 97.1 | 102 | 102 | –
3 µM | 50 | 73 | – | – | – | – | – | 0.64
10 µM | 23 | 69 | – | – | – | – | – | 0.75
10000 nM | – | – | 6.6 | 51.7 | 2.2 | 19.7 | 87.7 | –
30 µM | 23 | 35 | – | – | – | – | – | 0.35

drug-induced phospholipidosis [%], A549-ACE2
Conditions | 0.3 µM | 0.833333 µM | 3.33333 µM
24 h | 3.04 | 1.03 | -5.09
48 h | 1.4 | -0.94 | –
72 h | 3.03 | 0.0941 | –

Conditions | drug sensitivity score | relative viability EC50 [µM]
Caco-2 [9] | – | 3.85
Caco-2 [14] | 4.3 | –
Calu-3 [15] | 2 | –
HepG2 [11] | – | 2.96
HepG2 [16] | 5.8 | –
U2OS [12] | – | 3.34
U2OS [17] | 4.2 | –
Vero E6 [13] | – | > 10
Vero E6 [18] | 0 | –
